Source: paper PMC6332026, “Synthesis and Pharmacochemistry of New Pleiotropic Pyrrolyl Derivatives” (Molecules, 2015)

Molecular target: T1, interleukin-6 (IL-6) (Mus musculus, UniProt P08505)
T1 construct: purchased Cayman Item No. 583371
T1 sequence (P08505 25-211): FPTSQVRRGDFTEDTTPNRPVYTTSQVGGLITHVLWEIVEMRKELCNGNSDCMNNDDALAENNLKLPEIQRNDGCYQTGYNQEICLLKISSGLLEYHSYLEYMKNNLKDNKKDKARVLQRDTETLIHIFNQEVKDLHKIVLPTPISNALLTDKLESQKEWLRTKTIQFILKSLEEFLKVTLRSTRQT
Experiment: Inhibition of interleukin-6 (immunometric double antibody sandwich EIA)
Assay type: biochemical
Details: compound 10 μM
Description: The assay used for the inhibition of IL-6 is based on an immunometric double antibody method (sandwich technique). […] Both compounds gave satisfactory biological responses, both in high and in low concentrations of IL-6 (Table 8).
The method was based on an immunometric double antibody sandwich technique. Each well of the microwell plate was coated with a specific for mouse IL-6 rat monoclonal antibody. Tested compounds at 10 μΜ and standards were incubated in the wells, and after rinsing, a second monoclonal antibody was added, which was conjugated with biotin and detected the captured IL-6. The recognition of double antibody sandwiches was done with HRP-conjugated streptavidin. The concentration of IL-6 was determined by measuring the enzymatic activity of HRP using the chromogenic substrate TMB (3,3′,5,5′-tetramethylbenzidine). The absorbance of the reaction product was measured at 450 nm, and the intensity of the color was directly proportional to the amount of bound HRP-streptavidin conjugate, which was proportional to the concentration of IL-6.

Row | inhibition at 10 µM (IL-6 187.5 pg/mL) [%] | SMILES | inhibition at 10 µM (IL-6 375.0 pg/mL) [%] | inhibition at 10 µM (IL-6 750.0 pg/mL) [%] | inhibition at 10 µM (IL-6 1500 pg/mL) [%]
1 |  | O=C(c1ccc(Cl)cc1)c1c[nH]cc1-c1cccc2ccccc12 [Compound 2v, (4-Chlorophenyl)[4-(naphth-1-yl)-1H-pyrrol-3-yl]methanone] | 99 | 99 | 100
2 | 99 | O=C(c1cccs1)c1c[nH]cc1-c1cccc(Oc2ccccc2)c1 [Compound 2i, [4-(3-Phenoxyphenyl)-1H-pyrrol-3-yl](thien-2-yl)methanone] | 99 | 98 | 99
